What was measured:
Type in all cases: functional
[1] = test system: Bacteroides thetaiotaomicron; test: Antibacterial activity against Bacteroides thetaiotaomicron by CLSI M11-A6 agar dilution method in presence of beta-lactamase inhibitor Sulbactam
[2] = test system: Prevotella melaninogenica; test: Antibacterial activity against Prevotella melaninogenica by CLSI M11-A6 agar dilution method in presence of beta-lactamase inhibitor Sulbactam
Clostridium tertium = test: Antibacterial activity against Clostridium tertium by CLSI M11-A6 agar dilution method in presence of beta-lactamase inhibitor Sulbactam
Clostridium perfringens = test: Antibacterial activity against Clostridium perfringens by CLSI M11-A6 agar dilution method in presence of beta-lactamase inhibitor Sulbactam
Flavonifractor plautii = test: Antibacterial activity against Clostridium orbiscindens by CLSI M11-A6 agar dilution method in presence of beta-lactamase inhibitor Sulbactam
Holdemania filiformis = test: Antibacterial activity against Holdemania filiformis by CLSI M11-A6 agar dilution method in presence of beta-lactamase inhibitor Sulbactam
[Clostridium] innocuum = Antibacterial activity against Clostridium innocuum by CLSI M11-A6 agar dilution method in presence of beta-lactamase inhibitor Sulbactam
Clostridium disporicum = test: Antibacterial activity against Clostridium disporicum by CLSI M11-A6 agar dilution method in presence of beta-lactamase inhibitor Sulbactam
[3] = test system: Peptostreptococcus anaerobius; test: Antibacterial activity against Peptostreptococcus anaerobius by CLSI M11-A6 agar dilution method in presence of beta-lactamase inhibitor Sulbactam
[4] = test system: Catenibacterium mitsuokai; test: Antibacterial activity against Catenibacterium mitsuokai by CLSI M11-A6 agar dilution method in presence of beta-lactamase inhibitor Sulbactam
Coriobacterium = test: Antibacterial activity against […] by CLSI M11-A6 agar dilution method in presence of beta-lactamase inhibitor Sulbactam
Bacteroides fragilis = test: Antibacterial activity against Bacteroides fragilis by CLSI M11-A6 agar dilution method in presence of beta-lactamase inhibitor Sulbactam
[5] = test system: Streptococcus constellatus; test: Antibacterial activity against Streptococcus constellatus by CLSI M11-A6 agar dilution method in presence of beta-lactamase inhibitor Sulbactam
Clostridioides difficile = test: Antibacterial activity against Clostridium difficile by CLSI M11-A6 agar dilution method in presence of beta-lactamase inhibitor Sulbactam
Phocaeicola vulgatus = test: Antibacterial activity against Bacteroides vulgatus by CLSI M11-A6 agar dilution method in presence of beta-lactamase inhibitor Sulbactam
Bifidobacterium bifidum = test: Antibacterial activity against Bifidobacterium bifidum by CLSI M11-A6 agar dilution method in presence of beta-lactamase inhibitor Sulbactam
Clostridium spiroforme = test: Antibacterial activity against Clostridium spiroforme by CLSI M11-A6 agar dilution method in presence of beta-lactamase inhibitor Sulbactam; settings: Thomasclavelia spiroformis
[6] = test system: Streptococcus intermedius; test: Antibacterial activity against Streptococcus intermedius by CLSI M11-A6 agar dilution method in presence of beta-lactamase inhibitor Sulbactam
[7] = test system: Clostridium sporosphaeroides; test: Antibacterial activity against Clostridium sporosphaeroides by CLSI M11-A6 agar dilution method in presence of beta-lactamase inhibitor Sulbactam; settings: Faecalispora sporosphaeroides
Prevotella nigrescens = test: Antibacterial activity against Prevotella nigrescens by CLSI M11-A6 agar dilution method in presence of beta-lactamase inhibitor Sulbactam
Clostridium glycolicum = test: Antibacterial activity against Clostridium glycolicum by CLSI M11-A6 agar dilution method in presence of beta-lactamase inhibitor Sulbactam; settings: Terrisporobacter glycolicus
Ruminococcus torques = test: Antibacterial activity against Ruminococcus torques by CLSI M11-A6 agar dilution method in presence of beta-lactamase inhibitor Sulbactam; settings: Mediterraneibacter torques
Hoylesella loescheii = test: Antibacterial activity against Prevotella loescheii by CLSI M11-A6 agar dilution method in presence of beta-lactamase inhibitor Sulbactam
Clostridium leptum = test: Antibacterial activity against Clostridium leptum by CLSI M11-A6 agar dilution method in presence of beta-lactamase inhibitor Sulbactam
Ruminococcus lactaris = test: Antibacterial activity against Ruminococcus lactaris by CLSI M11-A6 agar dilution method in presence of beta-lactamase inhibitor Sulbactam
[8] = test system: Parabacteroides distasonis; test: Antibacterial activity against Parabacteroides distasonis by CLSI M11-A6 agar dilution method in presence of beta-lactamase inhibitor Sulbactam
Bifidobacterium dentium = test: Antibacterial activity against Bifidobacterium dentium by CLSI M11-A6 agar dilution method in presence of beta-lactamase inhibitor Sulbactam
Clostridium scindens = test: Antibacterial activity against Clostridium scindens by CLSI M11-A6 agar dilution method in presence of beta-lactamase inhibitor Sulbactam
Prevotella intermedia = test: Antibacterial activity against Prevotella intermedia by CLSI M11-A6 agar dilution method in presence of beta-lactamase inhibitor Sulbactam
Prevotella corporis = test: Antibacterial activity against Prevotella corporis by CLSI M11-A6 agar dilution method in presence of beta-lactamase inhibitor Sulbactam
[9] = test system: Coprobacillus cateniformis; test: Antibacterial activity against Coprobacillus cateniformis by CLSI M11-A6 agar dilution method in presence of beta-lactamase inhibitor Sulbactam
Actinomyces naeslundii = test: Antibacterial activity against Actinomyces naeslundii by CLSI M11-A6 agar dilution method in presence of beta-lactamase inhibitor Sulbactam
Finegoldia magna = test: Antibacterial activity against Finegoldia magna by CLSI M11-A6 agar dilution method in presence of beta-lactamase inhibitor Sulbactam
Prevotella buccae = test: Antibacterial activity against Prevotella buccae by CLSI M11-A6 agar dilution method in presence of beta-lactamase inhibitor Sulbactam; settings: Segatella buccae
[10] = test system: Bifidobacterium pseudolongum; test: Antibacterial activity against Bifidobacterium pseudolongum by CLSI M11-A6 agar dilution method in presence of beta-lactamase inhibitor Sulbactam

CC1(C)S[C@@H]2[C@H](NC(=O)[C@H](N)c3ccccc3)C(=O)N2[C@H]1C(=O)O [AMPICILLIN]
MIC50 [1]: 4 µg/mL | MIC90 [1]: 16 µg/mL | MIC50 [2]: ≤ 0.12 µg/mL | MIC90 [2]: 2 µg/mL | MIC50 (Clostridium tertium): 0.25 µg/mL | MIC90 (Clostridium tertium): 1 µg/mL | MIC (Clostridium perfringens): ≤ 0.12 µg/mL | MIC50 (Clostridium perfringens): ≤ 0.12 µg/mL | MIC90 (Clostridium perfringens): ≤ 0.12 µg/mL | MIC50 (Flavonifractor plautii): 0.25 µg/mL | MIC90 (Flavonifractor plautii): 1 µg/mL | MIC50 (Holdemania filiformis): 0.25 µg/mL | MIC90 (Holdemania filiformis): 1 µg/mL | MIC50 ([Clostridium] innocuum): 0.5 µg/mL | MIC90 ([Clostridium] innocuum): 0.5 µg/mL | MIC50 (Clostridium disporicum): 0.25 µg/mL | MIC90 (Clostridium disporicum): 1 µg/mL | MIC50 [3]: 0.25 µg/mL | MIC90 [3]: 0.5 µg/mL | MIC50 [4]: 0.25 µg/mL | MIC90 [4]: 1 µg/mL | MIC50 (Coriobacterium): 0.25 µg/mL | MIC90 (Coriobacterium): 1 µg/mL | MIC50 (Bacteroides fragilis): 1 µg/mL | MIC90 (Bacteroides fragilis): 8 µg/mL | MIC50 [5]: 0.5 µg/mL | MIC90 [5]: 0.5 µg/mL | MIC (Clostridioides difficile): 2 µg/mL | MIC50 (Clostridioides difficile): 2 µg/mL | MIC90 (Clostridioides difficile): 4 µg/mL | MIC50 (Phocaeicola vulgatus): 8 µg/mL | MIC90 (Phocaeicola vulgatus): 16 µg/mL | MIC50 (Bifidobacterium bifidum): 0.25 µg/mL | MIC90 (Bifidobacterium bifidum): 1 µg/mL | MIC50 (Clostridium spiroforme): 0.25 µg/mL | MIC90 (Clostridium spiroforme): 1 µg/mL | MIC50 [6]: 0.5 µg/mL | MIC90 [6]: 0.5 µg/mL | MIC50 [7]: 0.25 µg/mL | MIC90 [7]: 1 µg/mL | MIC50 (Prevotella nigrescens): ≤ 0.12 µg/mL | MIC90 (Prevotella nigrescens): 2 µg/mL | MIC50 (Clostridium glycolicum): 0.25 µg/mL | MIC90 (Clostridium glycolicum): 1 µg/mL | MIC50 (Ruminococcus torques): ≤ 0.12 µg/mL | MIC90 (Ruminococcus torques): 1 µg/mL | MIC50 (Hoylesella loescheii): ≤ 0.12 µg/mL | MIC90 (Hoylesella loescheii): 2 µg/mL | MIC50 (Clostridium leptum): 0.25 µg/mL | MIC90 (Clostridium leptum): 1 µg/mL | MIC50 (Ruminococcus lactaris): ≤ 0.12 µg/mL | MIC90 (Ruminococcus lactaris): 1 µg/mL | MIC50 [8]: 8 µg/mL | MIC90 [8]: 32 µg/mL | MIC50 (Bifidobacterium dentium): 0.25 µg/mL | MIC90 (Bifidobacterium dentium): 1 µg/mL | MIC50 (Clostridium scindens): 0.25 µg/mL | MIC90 (Clostridium scindens): 1 µg/mL | MIC50 (Prevotella intermedia): ≤ 0.12 µg/mL | MIC90 (Prevotella intermedia): 2 µg/mL | MIC50 (Prevotella corporis): ≤ 0.12 µg/mL | MIC90 (Prevotella corporis): 2 µg/mL | MIC50 [9]: 0.25 µg/mL | MIC90 [9]: 1 µg/mL | MIC50 (Actinomyces naeslundii): 0.25 µg/mL | MIC90 (Actinomyces naeslundii): 1 µg/mL | MIC50 (Finegoldia magna): 0.25 µg/mL | MIC90 (Finegoldia magna): 0.5 µg/mL | MIC50 (Prevotella buccae): ≤ 0.12 µg/mL | MIC90 (Prevotella buccae): 2 µg/mL | MIC50 [10]: 0.25 µg/mL | MIC90 [10]: 1 µg/mL

Source: ChEMBL document CHEMBL1671662, “In vitro activities of telavancin and six comparator agents against anaerobic bacterial isolates” (2009)
